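All cell lines were grown in 96-well plates and treated with compound for 48 hours. GI50 marks 50% less growth.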 The source made the active and inactive calls. No stated cut-off is given here; in the data, active = GI50 up to about 1.1 µM and inactive = higher.
How the values were obtained:
Assay in all cases: NCI-60 cell line screen, 48 h
786-0 = test system: 786-0
A498 = test system: A498
A549 = test system: A549
ACHN = test system: ACHN
BT-549 = test system: BT-549
CAKI-1 = test system: CAKI-1
CCRF-CEM = test system: CCRF-CEM
COLO 205 = test system: COLO 205
DLD-1 = test system: DLD-1
DMS-114 = test system: DMS-114
DMS-273 = test system: DMS-273
DU-145 = test system: DU-145
EKVX = test system: EKVX
HCC 2998 = test system: HCC 2998
HCT-116 = test system: HCT-116
HCT-15 = test system: HCT-15
HL-60 = test system: HL-60
HOP-18 = test system: HOP-18
HOP-62 = test system: HOP-62
HOP-92 = test system: HOP-92
HT-29 = test system: HT-29
Hs-578T = test system: Hs-578T
IGROV-1 = test system: IGROV-1
K562 = test system: K562
KM-20L2 = test system: KM-20L2
KM12 = test system: KM12
LOX IMVI = test system: LOX IMVI
LXFL 529 = test system: LXFL 529
M14 = test system: M14
M19-MEL = test system: M19-MEL
MCF7 = test system: MCF7
MDA-MB-231 = test system: MDA-MB-231
MDA-MB-435 = test system: MDA-MB-435
MDA-N = test system: MDA-N
MOLT-4 = test system: MOLT-4
Malme-3M = test system: Malme-3M
NCI-H226 = test system: NCI-H226
NCI-H23 = test system: NCI-H23
NCI-H460 = test system: NCI-H460
NCI-H522 = test system: NCI-H522
NCI/ADR-RES = test system: NCI/ADR-RES
OVCAR-3 = test system: OVCAR-3
OVCAR-4 = test system: OVCAR-4
OVCAR-5 = test system: OVCAR-5
OVCAR-8 = test system: OVCAR-8
PC-3 = test system: PC-3
RPMI-8226 = test system: RPMI-8226
RXF 393 = test system: RXF 393
RXF 631 = test system: RXF 631
SF-268 = test system: SF-268
SF-295 = test system: SF-295
SF-539 = test system: SF-539
SK-MEL-28 = test system: SK-MEL-28
SK-MEL-2 = test system: SK-MEL-2
SK-MEL-5 = test system: SK-MEL-5
SK-OV-3 = test system: SK-OV-3
SN12C = test system: SN12C
SNB-19 = test system: SNB-19
SNB-75 = test system: SNB-75
SNB-78 = test system: SNB-78
SR = test system: SR
SW-620 = test system: SW-620
T47D = test system: T47D
TK-10 = test system: TK-10
U-251 = test system: U-251
UACC-257 = test system: UACC-257
UACC-62 = test system: UACC-62
UO-31 = test system: UO-31
XF498 = test system: XF498

SMILES: C/C(=N\N=C(/S)N(C)C)c1cccc[n+]1[O-]
- GI50 (786-0): 28.6 µM (inactive)
- GI50 (A498): > 100 µM (inactive)
- GI50 (A549): 59.7 µM (inactive)
- GI50 (ACHN): 38.2 µM (inactive)
- GI50 (BT-549): 49.9 µM (inactive)
- GI50 (CAKI-1): 32.4 µM (inactive)
- GI50 (CCRF-CEM): 0.565 µM (active)
- GI50 (COLO 205): 0.82 µM (active)
- GI50 (DLD-1): 2.18 µM (inactive)
- GI50 (DMS-114): 0.482 µM (active)
- GI50 (DMS-273): 12.5 µM (inactive)
- GI50 (DU-145): 59 µM (inactive)
- GI50 (EKVX): 25.9 µM (inactive)
- GI50 (HCC 2998): 19.9 µM (inactive)
- GI50 (HCT-116): 0.489 µM (active)
- GI50 (HCT-15): 1.45 µM
- GI50 (HL-60): 1.03 µM (active)
- GI50 (HOP-18): > 100 µM (inactive)
- GI50 (HOP-62): 18 µM (inactive)
- GI50 (HOP-92): 22.3 µM (inactive)
- GI50 (HT-29): 3.05 µM (inactive)
- GI50 (Hs-578T): 92.9 µM (inactive)
- GI50 (IGROV-1): 45.3 µM (inactive)
- GI50 (K562): 0.631 µM (active)
- GI50 (KM-20L2): 5.61 µM (inactive)
- GI50 (KM12): 45.5 µM (inactive)
- GI50 (LOX IMVI): 20.5 µM (inactive)
- GI50 (LXFL 529): 0.466 µM (active)
- GI50 (M14): 25.9 µM (inactive)
- GI50 (M19-MEL): > 100 µM (inactive)
- GI50 (MCF7): 8.05 µM (inactive)
- GI50 (MDA-MB-231): 2.99 µM (inactive)
- GI50 (MDA-MB-435): 65.8 µM (inactive)
- GI50 (MDA-N): 95.1 µM (inactive)
- GI50 (MOLT-4): 0.914 µM (active)
- GI50 (Malme-3M): 43.7 µM (inactive)
- GI50 (NCI-H226): 54.6 µM (inactive)
- GI50 (NCI-H23): 12.6 µM (inactive)
- GI50 (NCI-H460): 33.6 µM (inactive)
- GI50 (NCI-H522): 4.05 µM (inactive)
- GI50 (NCI/ADR-RES): 2.05 µM (inactive)
- GI50 (OVCAR-3): 5.12 µM (inactive)
- GI50 (OVCAR-4): 46.8 µM (inactive)
- GI50 (OVCAR-5): 35.9 µM (inactive)
- GI50 (OVCAR-8): 23.7 µM (inactive)
- GI50 (PC-3): 15.4 µM (inactive)
- GI50 (RPMI-8226): 3.62 µM (inactive)
- GI50 (RXF 393): 65.3 µM (inactive)
- GI50 (RXF 631): > 100 µM (inactive)
- GI50 (SF-268): 38.2 µM (inactive)
- GI50 (SF-295): 39.6 µM (inactive)
- GI50 (SF-539): 47.4 µM (inactive)
- GI50 (SK-MEL-28): 73.5 µM (inactive)
- GI50 (SK-MEL-2): 38.5 µM (inactive)
- GI50 (SK-MEL-5): 27.7 µM (inactive)
- GI50 (SK-OV-3): 70.5 µM (inactive)
- GI50 (SN12C): 79.1 µM (inactive)
- GI50 (SNB-19): 91 µM (inactive)
- GI50 (SNB-75): 93.1 µM (inactive)
- GI50 (SNB-78): > 100 µM (inactive)
- GI50 (SR): 1.23 µM (inactive)
- GI50 (SW-620): 22.3 µM (inactive)
- GI50 (T47D): 0.413 µM (active)
- GI50 (TK-10): 82.2 µM (inactive)
- GI50 (U-251): 44.3 µM (inactive)
- GI50 (UACC-257): 4.38 µM (inactive)
- GI50 (UACC-62): 16.1 µM (inactive)
- GI50 (UO-31): 23.2 µM (inactive)

SMILES: Cc1ccc(C2=C(c3ccccc3)C(Br)(c3ccccc3)C(c3ccccc3)=C2c2ccc(C)cc2)cc1
- GI50 (786-0): > 100 µM (inactive)
- GI50 (A498): > 100 µM (inactive)
- GI50 (A549): > 100 µM (inactive)
- GI50 (ACHN): > 100 µM (inactive)
- GI50 (CAKI-1): > 100 µM (inactive)
- GI50 (CCRF-CEM): > 100 µM (inactive)
- GI50 (COLO 205): > 100 µM (inactive)
- GI50 (DLD-1): > 100 µM (inactive)
- GI50 (DMS-114): > 100 µM (inactive)
- GI50 (EKVX): > 100 µM (inactive)
- GI50 (HCT-116): > 100 µM (inactive)
- GI50 (HCT-15): > 100 µM
- GI50 (HL-60): > 100 µM (inactive)
- GI50 (HOP-18): > 100 µM (inactive)
- GI50 (HOP-62): > 100 µM (inactive)
- GI50 (HOP-92): > 100 µM (inactive)
- GI50 (HT-29): > 100 µM (inactive)
- GI50 (IGROV-1): > 100 µM (inactive)
- GI50 (K562): > 100 µM (inactive)
- GI50 (KM-20L2): > 100 µM (inactive)
- GI50 (KM12): > 100 µM (inactive)
- GI50 (LXFL 529): > 100 µM (inactive)
- GI50 (M14): > 100 µM (inactive)
- GI50 (M19-MEL): > 100 µM (inactive)
- GI50 (MOLT-4): > 100 µM (inactive)
- GI50 (Malme-3M): > 100 µM (inactive)
- GI50 (NCI-H226): > 100 µM (inactive)
- GI50 (NCI-H23): > 100 µM (inactive)
- GI50 (NCI-H460): > 100 µM (inactive)
- GI50 (NCI-H522): > 100 µM (inactive)
- GI50 (OVCAR-3): > 100 µM (inactive)
- GI50 (OVCAR-4): > 100 µM (inactive)
- GI50 (OVCAR-5): > 100 µM (inactive)
- GI50 (OVCAR-8): > 100 µM (inactive)
- GI50 (RPMI-8226): > 100 µM (inactive)
- GI50 (RXF 393): > 100 µM (inactive)
- GI50 (SF-268): > 100 µM (inactive)
- GI50 (SF-295): > 100 µM (inactive)
- GI50 (SF-539): > 100 µM (inactive)
- GI50 (SK-MEL-28): > 100 µM (inactive)
- GI50 (SK-MEL-2): > 100 µM (inactive)
- GI50 (SK-MEL-5): > 100 µM (inactive)
- GI50 (SK-OV-3): > 100 µM (inactive)
- GI50 (SN12C): > 100 µM (inactive)
- GI50 (SNB-19): > 100 µM (inactive)
- GI50 (SNB-75): > 100 µM (inactive)
- GI50 (SNB-78): > 100 µM (inactive)
- GI50 (SW-620): > 100 µM (inactive)
- GI50 (TK-10): > 100 µM (inactive)
- GI50 (U-251): > 100 µM (inactive)
- GI50 (UACC-257): > 100 µM (inactive)
- GI50 (UACC-62): > 100 µM (inactive)
- GI50 (UO-31): > 100 µM (inactive)
- GI50 (XF498): > 100 µM (inactive)

Reference: ChEMBL document CHEMBL1201862, “PubChem BioAssay data set” (2004)
